Data from patent US20150212068A1, “Cholyl-L-Lysyl-Fluorescein Assay” (Novassay SA, priority 2012, published 2015).

Key:
[1] = Stability of CLF-spiked serum samples after 12 day storage at 2-8° C., CLF ELISA; format: in vitro ADME, human
Procedure: (§1) These conditions were used for all assays described in Phase 2a (above) and Phase 2b (below). See Appendix B and C for buffer and conjugate formulations respectively: • Add 25 μl/well of sample or standard (0-1000 ng/ml CLF in Buffer #24) to the wells of a streptavidin-coated microtitre plate (NovAssay, F2SAC). • Add 100 μl/well of fluorescein-biotin (Sigma B9431) at 20 ng/ml in Buffer #24+0.2% w/v ANS (Sigma 10417). • Add 100 μl/well of anti-fluorescein HRP (NovAssay, DV047/17-3) at 100 ng/ml in Buffer #24. • Incubate the plate for 30 minutes at room temperature. • Wash the plate 3 times with 800 μl/well Buffer #29 and tap the plate dry. • Add 100 μl/well of SureBlue Reserve TMB Substrate (KPL) and incubate the plate for 10 minutes at room temperature. • Stop the substrate reaction by adding 100 μl/well of 1M HCl and read the absorbance at 450 nm wavelength (ThermoFisher Scientific, Multiskan FC).
Sample drift was assessed by using two sera spiked with CLF to 4 levels (62.5, 125, 250 and 500 ng/ml). Each of the samples were added to streptavidin coated wells (in duplicate) soon after the addition of the standards (time 0, in columns 5&6)); after 5 minutes the samples were added to columns 7&8; “5 minute” time point” 5 minutes later in columns 9&10 (“10 minute time point” and 5 minutes later in columns 11&12 (“15 minute time point”). The samples used were prepared 12 days prior to the experiment and were kept at 2-8° C. In addition, some other serum samples that were spiked with CLF at the same time (12 days prior to the assay) were also measured in order to determine the stability of CLF (note: The data obtained are the results of 2 variables (instability of CLF and the recovery) and thus represent a “worst case scenario”.
The level of instability (after 12 day storage at 2-8° C.) was calculated by comparing the results obtained with the expected results.

[2] = Effect of light exposure on CLF-spiked serum, 48 hrs at room temperature, CLF ELISA; format: physicochemical, human; conditions: for % difference (light from dark) / observed Light / observed dark: serum pool; for % difference (light from dark) / observed dark: 48 hrs at RT; for observed Light: 48 hrs at RT near light source; for observed dark: covered with aluminium foil
Procedure: as §1
For the study of the effect of light, 3 pools of serum were spiked with CLF at 31.25, 125 and 500 ng/ml. One aliquot of each pool was put near a light source (fluorescent bulb 58 watts, at a distance of 85 cm). The “dark” sample was covered with aluminium foil. The samples were at RT (˜18-22° C.). Storage time was 48 hrs.

[3] = Stability (LTD samples) of CLF in plasma measured with the CLF ELISA; format: in vitro ADME, human
Procedure: as §1
The samples provided (LTD) included 8 “standards” (no details of their preparation were given, apart from the concentration which ranged from 0 to 100 ng/ml) and samples which were presumed to be stability samples (no details of their preparation were given). The stability work appeared to have been undertaken on 3 individual donor samples. Note, that 2 of the donor samples were heavily haemolysed.

[4] = 12 day storage at 2-8° C., pool1, Expected 125 ng/ml
[5] = 12 day storage at 2-8° C., pool2, Expected 31.25 ng/ml
[6] = 12 day storage at 2-8° C., pool3, Expected 500 ng/ml
[7] = 12 day storage at 2-8° C., sample 5876, Expected 1000 ng/ml
[8] = 12 day storage at 2-8° C., sample 5881, Expected 1000 ng/ml
[9] = 12 day storage at 2-8° C., sample 5883, Expected 500 ng/ml
[10] = 12 day storage at 2-8° C., sample 5883, Expected 1000 ng/ml
[11] = 12 day storage at 2-8° C., sample 5884, Expected 62.5 ng/ml
[12] = 12 day storage at 2-8° C., sample 5884, Expected 125 ng/ml
[13] = 12 day storage at 2-8° C., sample 5884, Expected 250 ng/ml
[14] = 12 day storage at 2-8° C., sample 5884, Expected 500 ng/ml
[15] = 12 day storage at 2-8° C., sample 5885, Expected 62.5 ng/ml
[16] = 12 day storage at 2-8° C., sample 5885, Expected 125 ng/ml
[17] = 12 day storage at 2-8° C., sample 5885, Expected 250 ng/ml
[18] = 12 day storage at 2-8° C., sample 5885, Expected 500 ng/ml
[19] = 12 day storage at 2-8° C., sample 5885, Expected 1000 ng/ml

With CC(CCC(=O)NC(CCCCNC(=S)Nc1ccc(-c2c3ccc(=O)cc-3oc3cc(O)ccc23)c(C(=O)O)c1)C(=O)O)C1CCC2C3C(O)CC4CC(O)CCC4(C)C3CC(O)C12C [CLF, Cholyl-L-Lysyl-Fluorescein] the “Difference, mean” value ([1]; 12 day storage at 2-8° C., mean of all samples) was −27%, the Difference [1, 4] was −39% and the observed [1, 4] was 76 ng/mL. The Difference [1, 5] was −14%, the observed [1, 5] was 27 ng/mL and the Difference [1, 6] was −27%. It also gave an observed [1, 6] of 365 ng/mL, a Difference [1, 7] of −24% and an observed [1, 7] of 756 ng/mL. For the same compound, the Difference [1, 8] was −18%, the observed [1, 8] was 820 ng/mL and the Difference [1, 9] was −25%. The observed [1, 9] was 375 ng/mL, the Difference [1, 10] was −10% and the observed [1, 10] was 903 ng/mL. For the same compound, the Difference [1, 11] was −29%, the observed [1, 11] was 44 ng/mL and the Difference [1, 12] was −36%. For the same compound, the observed [1, 12] was 80 ng/mL, the Difference [1, 13] was −39% and the observed [1, 13] was 153 ng/mL. It also gave a Difference [1, 14] of −32%, an observed [1, 14] of 340 ng/mL and a Difference [1, 15] of −27%. The observed [1, 15] was 46 ng/mL, the Difference [1, 16] was −33% and the observed [1, 16] was 84 ng/mL. The Difference [1, 17] was −29%, the observed [1, 17] was 177 ng/mL and the Difference [1, 18] was −24%. The observed [1, 18] was 379 ng/mL, the Difference [1, 19] was −20% and the observed [1, 19] was 804 ng/mL. The “reduction in measured CLF (mean)” value ([1]; samples kept at 2-8 C. for 12 days) was 27%) occurs when samples are kept, the “reduction in measured CLF (mean)” value ([1]; spiked serum samples kept at 2-8° C. for 12 days, vs expected) was 27% and the CLF immunoreactivity lost ([2]; exposed to light, after 48 hrs) was “long period, with up to 25% of CLF”. For the same compound, the “% difference (light from dark)” value ([2]; expected 31.25 ng/ml) was 0%, the “observed Light” value ([2]; expected 31.25 ng/ml) was 37 ng/mL and the observed dark ([2]; expected 31.25 ng/ml) was 37 ng/mL. For the same compound, the “% difference (light from dark)” value ([2]; expected 125 ng/ml) was −25%, the “observed Light” value ([2]; expected 125 ng/ml) was 107 ng/mL and the observed dark ([2]; expected 125 ng/ml) was 143 ng/mL. The “% difference (light from dark)” value ([2]; expected 500 ng/ml) was −15%, the “observed Light” value ([2]; expected 500 ng/ml) was 423 ng/mL and the observed dark ([2]; expected 500 ng/ml) was 495 ng/mL. The “CLF immunoreactivity lost on exposure to light” value ([2]; spiked serum, 48 hrs, room temperature, fluorescent bulb vs dark) was “up to 25%”, the “comparison of storage temperatures” value ([3]; LTD plasma stability samples, 4° C. vs RT (~18-22° C.)) was 4 °C storage is slightly better than RT and the “percent loss of CLF” value ([3]; LTD plasma stability samples, 24 hours) was “approximately 10%”. The “percent loss of CLF” value ([3]; PLASMA 2.4, T0) was 0%, the “percent loss of CLF” value ([3]; PLASMA 2.4, T30) was −11% and the “percent loss of CLF” value ([3]; PLASMA 2.4, T120) was −12%. The “percent loss of CLF” value ([3]; PLASMA 2.4, T24 h) was −11%, the “percent loss of CLF” value ([3]; PLASMA 2.5.1, T0) was 0% and the “percent loss of CLF” value ([3]; PLASMA 2.5.1, T30, 4° C.) was 3%. For the same compound, the “percent loss of CLF” value ([3]; PLASMA 2.5.1, T30 RT) was −5%, the “percent loss of CLF” value ([3]; PLASMA 2.5.1, T120 4° C.) was 1% and the “percent loss of CLF” value ([3]; PLASMA 2.5.1, T120 RT) was −6%. For the same compound, the “percent loss of CLF” value ([3]; PLASMA 2.5.1, T24 h 4° C.) was −9%, the “percent loss of CLF” value ([3]; PLASMA 2.5.1, T24 h RT) was −13% and the “percent loss of CLF” value ([3]; PLASMA 2.5.2, T0) was 0%. The “percent loss of CLF” value ([3]; PLASMA 2.5.2, T30, 4° C.) was 10%, the “percent loss of CLF” value ([3]; PLASMA 2.5.2, T30 RT) was 3% and the “percent loss of CLF” value ([3]; PLASMA 2.5.2, T120 4° C.) was 10%. For the same compound, the “percent loss of CLF” value ([3]; PLASMA 2.5.2, T120 RT) was 1%, the “percent loss of CLF” value ([3]; PLASMA 2.5.2, T24 h 4° C.) was −5% and the “percent loss of CLF” value ([3]; PLASMA 2.5.2, T24 h RT) was −14%.
